Molecules are shown by their SMILES. pEC50: −log10 of the molar value. Converted amounts (≈) assume the structure as drawn. Where two headings read alike, the source gives them in different places. Bounds are passed on as bounds.

This is an account of results in patent US20250127801A1, “BRIDGED TRICYCLIC CARBAMOYLPYRIDONE COMPOUNDS AND USES THEREOF” (priority 2023, published 2025).

Data set [1] deals with HIV-1 (IIIB). As to the kind of experiment: microbe, parasite or virus in culture. Format: cell-based. The conditions noted are these: for EC50: Human immunodeficiency virus 1, IIIB, MT4, 120 h, read-out: MT4 EC50 (nM); for pEC50: Human immunodeficiency virus 1, MT4, 120 h, HIV-1 (IIIB) replication in MT-4 cells, 5 days incubation, Cell Titer Glo, read-out: MT4 EC50. In general terms: In ATP-based viability assays light output follows the ATP content of the culture.

Data set [2] is described as follows: physchem. The settings on record: 23 °C, thermodynamic from solid; for solubility thermodynamic: fassif; for solubility thermodynamic at 24 h: FaSSIF.
Data set [3] is described as follows: in vitro. The conditions noted are these: human; for CC50 at 5 days: uninfected MT-4 cells.

Take `CC1=NO[C@@]2(CC[C@H](C)N3C[C@H]2n2cc(C(=O)NCc4ccc(F)cc4F)c(=O)c(OC(=O)N(C)c4ncccc4COP(=O)(O)O)c2C3=O)C1` [Compound 1, (3′S,5S,7′R)-10′-((2,4-difluorobenzyl)carbamoyl)-3,3′-dimethyl-1′,11′-dioxo-1′,4′,5′,11′-tetrahydro-3′H,4H,7′H-spiro[isoxazole-5,6′-[2,7]methanopyrido[1,2-a][1,4]diazonin]-12′-yl methyl(3-((phosphonooxy)methyl)pyridin-2-yl)carbamate]: the EC50 – broadly, the midpoint of the concentration-response curve – in data set [1] worked out at 3.48 nM. Besides, the solubility (thermodynamic) (in general, the concentration in solution at equilibrium with solid) in data set [2] came out at 4900 µg/mL (≈ 6.71 mM). This molecule also came in with a CC50 in data set [3] of 15900 nM.

With `CC1=NO[C@@]2(CC[C@H](C)N3C[C@H]2n2cc(C(=O)NCc4ccc(F)cc4F)c(=O)c(OC(=O)N(C)c4ncc(C(=O)O)cc4COP(=O)(O)O)c2C3=O)C1` [Compound 4, 6-(((((3′S,5S,7′R)-10′-((2,4-difluorobenzyl)carbamoyl)-3,3′-dimethyl-1′,11′-dioxo-1′,4′,5′,11′-tetrahydro-3′H,4H,7′H-spiro[isoxazole-5,6′-[2,7]methanopyrido[1,2-a][1,4]diazonin]-12′-yl)oxy)carbonyl)(methyl)amino)-5-((phosphonooxy)methyl)nicotinic acid], in data set [1], the EC50 came out at 14.8 nM. Moreover, in data set [2], the thermodynamic solubility is 4800 µg/mL (≈ 6.2 mM). The CC50 in data set [3] was at least 50000 nM.

For the molecule `CC1=NO[C@@]2(CC[C@H](C)N3C[C@H]2n2cc(C(=O)NCc4ccc(F)cc4F)c(=O)c(OC(=O)N(C)c4ncccc4CN(CC(=O)OCc4ccccc4)C(=O)OCOP(=O)(O)O)c2C3=O)C1` [Compound 33, benzyl N-((2-(((((3′S,5S,7′R)-10′-((2,4-difluorobenzyl)carbamoyl)-3,3′-dimethyl-1′,11′-dioxo-1′,4′,5′,11′-tetrahydro-3′H,4H,7′H-spiro[isoxazole-5,6′-[2,7]methanopyrido[1,2-a][1,4]diazonin]-12′-yl)oxy)carbonyl)(methyl)amino)pyridin-3-yl)methyl)-N-(((phosphonooxy)methoxy)carbonyl)glycinate], the EC50 in data set [1] worked out at 2.34 nM. In data set [2], this molecule displayed a thermodynamic solubility of 4170 µg/mL (≈ 4.38 mM). In addition, the CC50 in data set [3] is 12900 nM.

As to `CC1=NO[C@@]2(CC[C@H](C)N3C[C@H]2n2cc(C(=O)NCc4ccc(F)cc4F)c(=O)c(OCOC(=O)N(C)c4ncccc4COC(=O)[C@H](C)N)c2C3=O)C1` [Compound 11, (2-((((((3′S,5S,7′R)-10′-((2,4-difluorobenzyl)carbamoyl)-3,3′-dimethyl-1′,11′-dioxo-1′,4′,5′,11′-tetrahydro-3′H,4H,7′H-spiro[isoxazole-5,6′-[2,7]methanopyrido[1,2-a][1,4]diazonin]-12′-yl)oxy)methoxy)carbonyl)(methyl)amino)pyridin-3-yl)methyl L-alaninate], the pEC50 (commonly −log10 of the EC50, conventionally taken in molar units) in data set [1] was 8.72. In data set [2], this molecule yielded a thermodynamic solubility at 24 h of 2 µg/mL (≈ 0.00266 mM). The CC50 at 5 days in data set [3] stood at 14500 nM.

Take `CC1=NO[C@@]2(CC[C@H](C)N3C[C@H]2n2cc(C(=O)NCc4ccc(F)cc4F)c(=O)c(OCOC(=O)CC(C)(C)c4c(C)cc(C)cc4OP(=O)(O)O)c2C3=O)C1` [Compound 27]: in data set [1], the EC50 turned out to be 2.75 nM. In addition, the thermodynamic solubility in data set [2] was 2260 µg/mL (≈ 2.82 mM). The CC50 in data set [3] was 16900 nM.

As for `CCCCCCCCCCCCCC(=O)Oc1ccc(C(=O)Oc2c3n(cc(C(=O)NCc4ccc(F)cc4F)c2=O)[C@@H]2CN(C3=O)[C@@H](C)CC[C@]23CC(OC)=NO3)cc1` [Compound 99, (3′S,5S,7′R)-10′-((2,4-difluorobenzyl)carbamoyl)-3-methoxy-3′-methyl-1′,11′-dioxo-1′,4′,5′,11′-tetrahydro-3′H,4H,7′H-spiro[isoxazole-5,6′-[2,7]methanopyrido[1,2-a][1,4]diazonin]-12′-yl 4-(tetradecanoyloxy)benzoate], in data set [1], the pEC50 was 8.52. Besides, the thermodynamic solubility at 24 h in data set [2] is 13 µg/mL (≈ 0.0156 mM). The molecule also gave a CC50 at 5 days in data set [3] of at least 50000 nM.

For the molecule `CC1=NO[C@@]2(CC[C@H](C)N3C[C@H]2n2cc(C(=O)NCc4ccc(F)cc4F)c(=O)c(OCOC(=O)[C@@H]4[C@H](COP(=O)(O)O)[C@H]4C(=O)O)c2C3=O)C1` [Compound 78, (1R,2R,3R)-2-(((((3′S,5S,7′R)-10′-((2,4-difluorobenzyl)carbamoyl)-3,3′-dimethyl-1′,11′-dioxo-1′,4′,5′,11′-tetrahydro-3′H,4H,7′H-spiro[isoxazole-5,6′-[2,7]methanopyrido[1,2-a][1,4]diazonin]-12′-yl)oxy)methoxy)carbonyl)-3-((phosphonooxy)methyl)cyclopropane-1-carboxylic acid], the pEC50 in data set [1] was 8.66. The solubility (thermodynamic) at 24 h in data set [2] was found to be 5140 µg/mL (≈ 6.95 mM). Also, the CC50 at 5 days in data set [3] amounted to 8050 nM.

On to `CC1=NO[C@@]2(CC[C@H](C)N3C[C@H]2n2cc(C(=O)NCc4ccc(F)cc4F)c(=O)c(OCOC(=O)O[C@@H]4CC[C@H](OP(=O)(O)O)C4)c2C3=O)C1` [Compound 54, (((3′S,5S,7′R)-10′-((2,4-difluorobenzyl)carbamoyl)-3,3′-dimethyl-1′11′-dioxo-1′,4′,5′,11′-tetrahydro-3′H,4H,7′H-spiro[isoxazole-5,6′-[2,7]methanopyrido[1,2-a][1,4]diazonin]-12′-yl)oxy)methyl ((cis)-3-(phosphonooxy)cyclopentyl) carbonate], for which the negative-log EC50 (pEC50) in data set [1] is 8.03. Moreover, the solubility (thermodynamic) at 24 h in data set [2] stood at 5280 µg/mL (≈ 7.29 mM). Further, in data set [3], the CC50 at 5 days is at least 50000 nM.

As for `CC1=NO[C@@]2(CC[C@H](C)N3C[C@H]2n2cc(C(=O)NCc4ccc(F)cc4F)c(=O)c(OCOC(=O)CC(C)(C)c4c(CC(=O)O)cc(C)cc4OP(=O)(O)O)c2C3=O)C1` [Compound 20, 2-(2-(4-((((3′S,5S,7′R)-10′-((2,4-difluorobenzyl)carbamoyl)-3,3′-dimethyl-1′,11′-dioxo-1′,4′,5′,11′-tetrahydro-3′H,4H,7′H-spiro[isoxazole-5,6′-[2,7]methanopyrido[1,2-a][1,4]diazonin]-12′-yl)oxy)methoxy)-2-methyl-4-oxobutan-2-yl)-5-methyl-3-(phosphonooxy)phenyl)acetic acid], the EC50 in data set [1] was 1.76 nM. In data set [2], this molecule displayed a solubility (thermodynamic) of 4410 µg/mL (≈ 5.22 mM). In data set [3], this molecule returned a CC50 of 12500 nM.

As for `CC1=NO[C@@]2(CC[C@H](C)N3C[C@H]2n2cc(C(=O)NCc4ccc(F)cc4F)c(=O)c(OCc4ccncc4OP(=O)(O)O)c2C3=O)C1` [Compound 70, 4-((((3′S,5S,7′R)-10′-((2,4-difluorobenzyl)carbamoyl)-3,3′-dimethyl-1′,11′-dioxo-1′,4′,5′,11′-tetrahydro-3′H,4H,7′H-spiro[isoxazole-5,6′-[2,7]methanopyrido[1,2-a][1,4]diazonin]-12′-yl)oxy)methyl)pyridin-3-yl dihydrogen phosphate], in data set [1], the 50% effective concentration (EC50) was found to be 1.63 nM. This molecule registered a solubility (thermodynamic) in data set [2] of 2460 µg/mL. This molecule gave a CC50 in data set [3] of 10200 nM.

As for `CC1=NO[C@@]2(CC[C@H](C)N3C[C@H]2n2cc(C(=O)NCc4ccc(F)cc4F)c(=O)c(OC(=O)OCCC(C)(C)c4c(CC(=O)O)cc(C)cc4OP(=O)(O)O)c2C3=O)C1` [Compound 25, 2-(2-(4-(((((3′S,5S,7′R)-10′-((2,4-difluorobenzyl)carbamoyl)-3,3′-dimethyl-1′,11′-dioxo-1′,4′,5′,11′-tetrahydro-3′H,4H,7′H-spiro[isoxazole-5,6′-[2,7]methanopyrido[1,2-a][1,4]diazonin]-12′-yl)oxy)carbonyl)oxy)-2-methylbutan-2-yl)-5-methyl-3-(phosphonooxy)phenyl)acetic acid], the EC50 in data set [1] amounted to 1.43 nM. In data set [2], this molecule had a solubility (thermodynamic) of 4760 µg/mL (≈ 5.63 mM). The CC50 in data set [3] is 11600 nM.
